Test results from patent US12441768B2, “Compositions and methods for treating endometriosis” (EndoMet Biosciences, Inc., priority 2018, dated 2025).
Where a SMILES comes first, the peptide text is derived from it.

Tests used:
[1] = target: Wnt-responsive promoter (TCF/LEF); test: Wnt-dependent luciferase reporter assay; format: cell-based, murine
Method in brief: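 EC50 (uM) derived from inhibition of luminescence in Wnt3a-stimulated murine 3T3 cells expressing luciferase under a TCF/LEF promoter, with peptides added across a concentration range and vehicle as control.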

β-catenin = target: T1, β-catenin (Homo sapiens, UniProt P35222); test: KD50 measurement using competitive fluorescence polarization (FP) with labelled TCF4; format: binding; details: fluorescence polarization, β-catenin; for Kd: read-out: β-Cat FP KD
T1 sequence (P35222 1-781): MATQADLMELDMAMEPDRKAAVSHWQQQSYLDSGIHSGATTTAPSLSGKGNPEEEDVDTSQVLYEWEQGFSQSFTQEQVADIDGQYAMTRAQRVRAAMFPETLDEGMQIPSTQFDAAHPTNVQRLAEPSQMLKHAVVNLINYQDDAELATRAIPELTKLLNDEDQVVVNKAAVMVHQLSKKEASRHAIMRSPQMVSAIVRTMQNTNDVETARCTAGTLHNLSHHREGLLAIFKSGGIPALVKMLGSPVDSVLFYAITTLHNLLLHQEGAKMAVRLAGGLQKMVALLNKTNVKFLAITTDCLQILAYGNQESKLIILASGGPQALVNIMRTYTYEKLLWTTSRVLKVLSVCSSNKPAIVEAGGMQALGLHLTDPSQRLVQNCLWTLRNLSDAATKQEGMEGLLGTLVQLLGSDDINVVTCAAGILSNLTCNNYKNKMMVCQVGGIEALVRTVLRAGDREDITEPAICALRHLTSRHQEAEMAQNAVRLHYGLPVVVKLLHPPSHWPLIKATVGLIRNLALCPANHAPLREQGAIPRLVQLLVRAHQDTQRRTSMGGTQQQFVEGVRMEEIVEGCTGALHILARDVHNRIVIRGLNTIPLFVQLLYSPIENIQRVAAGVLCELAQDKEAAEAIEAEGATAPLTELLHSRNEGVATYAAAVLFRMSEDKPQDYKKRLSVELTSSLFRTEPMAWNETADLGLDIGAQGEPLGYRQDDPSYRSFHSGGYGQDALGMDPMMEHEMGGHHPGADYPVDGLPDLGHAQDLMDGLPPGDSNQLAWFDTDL
Method in brief: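 Each compound competes against labelled TCF4 (5 nM) for 100 nM β-catenin at room temperature, tested over 10 nM to 30 uM. Signal: polarization at 470/520 nm excitation/emission. Three repeat experiments were performed.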

[2] = % Viability non-Wnt responsive cells

| SMILES | EC50 [1] [µM] | β-Cat FP Hill slope (β-catenin) | Kd (β-catenin) [nM] | viability [2] [%] |
| --- | --- | --- | --- | --- |
| CC[C@H](C)[C@H](NC(=O)[C@H](CC(C)C)NC(=O)[C@@H](NC(=O)[C@H](Cc1c[nH]c2ccccc12)NC(=O)[C@@H](N)CCCCN)[C@@H](C)CC)C(=O)N[C@@H](CO)C(=O)N[C@@H](Cc1ccccc1)C(=O)N[C@@H](Cc1c[nH]c2ccccc12)C(=O)NCC(=O)O [compound 125] (H-KWILISFWG-OH) | 22.5 to 30 | 0.7 | 400 to 1000 | 113 |
| CC[C@H](C)[C@H](NC(=O)[C@H](Cc1c[nH]c2ccccc12)NC(=O)[C@@H](N)CCSC)C(=O)NC(C)(CC(C)C)C(=O)N[C@H](C(=O)N[C@@H](CS)C(=O)N[C@@H](Cc1ccccc1)C(=O)N[C@@H](Cc1c[nH]c2ccccc12)C(=O)NCC(=O)O)[C@@H](C)CC (stereo partly shown) [compound 130] (HELM PEPTIDE1{M.W.I.[CC(C)CC(C)(N[*:1])C(=O)[*:2]].I.C.F.W.G}$$$$V2.0) | 22.5 to 30 | 0.72 | 1000 to 10000 | 98.3 |
| CC[C@H](C)[C@H](NC(=O)[C@H](CC(C)C)NC(=O)C(C)(Cc1ccccc1)NC(=O)[C@H](Cc1c[nH]c2ccccc12)NC(=O)[C@@H](N)CCSC)C(=O)N[C@@H](CO)C(=O)N[C@@H](Cc1ccccc1)C(=O)N[C@@H](Cc1c[nH]c2ccccc12)C(=O)NCC(=O)O (stereo partly shown) [compound 133] (HELM PEPTIDE1{M.W.[CC(Cc1ccccc1)(N[*:1])C(=O)[*:2]].L.I.S.F.W.G}$$$$V2.0) | > 30 | 3 | < 400 | 95.4 |
| CC[C@H](C)[C@H](NC(=O)[C@H](CC(C)C)NC(=O)[C@@H](NC(=O)C(C)(Cc1c[nH]c2ccccc12)NC(=O)[C@@H](N)CCSC)[C@@H](C)CC)C(=O)N[C@@H](CO)C(=O)N[C@@H](Cc1ccccc1)C(=O)N[C@@H](Cc1c[nH]c2ccccc12)C(=O)NCC(=O)O (stereo partly shown) [compound 134] (HELM PEPTIDE1{M.[CC(Cc1c[nH]c2ccccc12)(N[*:1])C(=O)[*:2]].I.L.I.S.F.W.G}$$$$V2.0) | > 30 | 1.47 | 1000 to 10000 | 97.9 |
| CC[C@H](C)[C@H](NC(=O)[C@H](Cc1c[nH]c2ccccc12)NC(=O)[C@@H](N)CCSC)C(=O)N[C@@H](CC(C)C)C(=O)N[C@H](C(=O)NC(C)(CO)C(=O)N[C@@H](Cc1ccccc1)C(=O)N[C@@H](Cc1c[nH]c2ccccc12)C(=O)NCC(=O)O)[C@@H](C)CC (stereo partly shown) [compound 136] (HELM PEPTIDE1{M.W.I.L.I.[CC(CO)(N[*:1])C(=O)[*:2]].F.W.G}$$$$V2.0) | > 30 | 0.9 | 400 to 1000 | 106 |
| CC[C@H](C)[C@H](NC(=O)[C@H](Cc1c[nH]c2ccccc12)NC(=O)[C@@H](N)CCSC)C(=O)N[C@@H](CC(C)C)C(=O)N[C@H](C(=O)N[C@@H](C(=O)N[C@@H](Cc1ccccc1)C(=O)N[C@@H](Cc1c[nH]c2ccccc12)C(=O)NCC(=O)O)[C@H](C)O)[C@@H](C)CC [compound 137] (HELM PEPTIDE1{M.W.I.L.I.[dT].F.W.G}$$$$V2.0) | 15 to 22.5 | 0.81 | 400 to 1000 | 93.9 |
| CC[C@H](C)[C@H](NC(=O)[C@H](Cc1c[nH]c2ccccc12)NC(=O)[C@@H](N)CCSC)C(=O)NC(C)(CC(C)C)C(=O)N[C@H](C(=O)N[C@@H](CO)C(=O)N[C@@H](Cc1ccccc1)C(=O)N[C@@H](Cc1c[nH]c2ccccc12)C(=O)NCC(=O)O)[C@@H](C)CC (stereo partly shown) [compound 138] (HELM PEPTIDE1{M.W.I.[CC(C)CC(C)(N[*:1])C(=O)[*:2]].I.S.F.W.G}$$$$V2.0) | > 30 |  | > 30000 | 106 |
| CCCCCC[C@H](N)C(=O)N[C@@H](Cc1c[nH]c2ccccc12)C(=O)N[C@@H](Cc1ccccc1)C(=O)N[C@@H](CC(C)C)C(=O)N[C@H](C(=O)N[C@@H](CS)C(=O)N[C@@H](Cc1ccccc1)C(=O)N[C@@H](Cc1c[nH]c2ccccc12)C(=O)NCC(=O)O)[C@@H](C)CC [compound 139] (HELM PEPTIDE1{[CCCCCC[C@H](N)C(=O)[*:2]].W.F.L.I.C.F.W.G}$$$$V2.0) | > 30 |  | > 30000 | 99.5 |

Now from value to compound, other results behind:

| EC50 [1] [µM] | β-Cat FP Hill slope (β-catenin) | Kd (β-catenin) [nM] | SMILES | viability [2] [%] |
| --- | --- | --- | --- | --- |
| < 7.5 | 1.07 | < 400 | CC[C@H](C)[C@H](NC(=O)[C@H](CC(C)C)NC(=O)[C@@H](NC(=O)[C@H](Cc1c[nH]c2ccccc12)NC(=O)[C@H](CCSC)NC(=O)[C@@H](N)Cc1c[nH]cn1)[C@@H](C)CC)C(=O)N[C@@H](CO)C(=O)N[C@@H](Cc1ccccc1)C(=O)N[C@@H](Cc1c[nH]c2ccccc12)C(=O)NCC(=O)O [compound 123] (H-HMWILISFWG-OH) | 107 |
| 7.5 to 15 |  | > 30000 | CC[C@H](C)[C@H](NC(=O)[C@H](CC(C)C)NC(=O)[C@@H](NC(=O)[C@H](Cc1c[nH]c2ccccc12)NC(=O)[C@H](CCSC)NC(=O)[C@@H](N)CCCNC(=N)N)[C@@H](C)CC)C(=O)N[C@@H](CO)C(=O)N[C@@H](Cc1ccccc1)C(=O)N[C@@H](Cc1c[nH]c2ccccc12)C(=O)NCC(=O)O [compound 124] (H-RMWILISFWG-OH) | 102 |
| < 7.5 | 0.99 | < 400 | CC[C@H](C)[C@H](NC(=O)[C@H](CC(C)C)NC(=O)[C@@H](NC(=O)[C@H](Cc1c[nH]c2ccccc12)NC(=O)[C@@H](N)Cc1c[nH]cn1)[C@@H](C)CC)C(=O)N[C@@H](CO)C(=O)N[C@@H](Cc1ccccc1)C(=O)N[C@@H](Cc1c[nH]c2ccccc12)C(=O)NCC(=O)O [compound 126] (H-HWILISFWG-OH) | 111 |
| 7.5 to 15 | 1 | 400 to 1000 | CC[C@H](C)[C@H](NC(=O)[C@H](CC(C)C)NC(=O)[C@@H](NC(=O)[C@H](Cc1c[nH]c2ccccc12)NC(=O)[C@@H](N)Cc1c[nH]c2ccccc12)[C@@H](C)CC)C(=O)N[C@@H](CO)C(=O)N[C@@H](Cc1ccccc1)C(=O)N[C@@H](Cc1c[nH]c2ccccc12)C(=O)NCC(=O)O [compound 127] (H-WWILISFWG-OH) | 120 |
| 7.5 to 15 | 2.15 | 400 to 1000 | CC[C@H](C)[C@H](NC(=O)[C@H](Cc1c[nH]c2ccccc12)NC(=O)[C@@H](N)CCSC)C(=O)N[C@@H](CC(C)C)C(=O)N[C@H](C(=O)N[C@@H](CO)C(=O)NC(C)(Cc1ccccc1)C(=O)N[C@@H](Cc1c[nH]c2ccccc12)C(=O)NCC(=O)O)[C@@H](C)CC (stereo partly shown) [compound 128] (HELM PEPTIDE1{M.W.I.L.I.S.[CC(Cc1ccccc1)(N[*:1])C(=O)[*:2]].W.G}$$$$V2.0) | 132 |
| < 7.5 | 0.87 | 400 to 1000 | CC[C@H](C)[C@H](NC(=O)[C@H](CC(C)C)NC(=O)[C@@H](NC(=O)[C@H](Cc1c[nH]c2ccccc12)NC(=O)[C@@H](N)CCSC)[C@@H](C)CC)C(=O)N[C@@H](CO)C(=O)N[C@@H](CO)C(=O)N[C@@H](Cc1c[nH]c2ccccc12)C(=O)NCC(=O)O [compound 129] (H-MWILISSWG-OH) | 134 |
| 7.5 to 15 | 1.27 | < 400 | CC[C@H](C)[C@H](NC(=O)[C@H](CC(C)C)NC(=O)C(C)(Cc1ccccc1)NC(=O)[C@H](Cc1c[nH]c2ccccc12)NC(=O)[C@@H](N)CCSC)C(=O)N[C@@H](CS)C(=O)N[C@@H](Cc1ccccc1)C(=O)N[C@@H](Cc1c[nH]c2ccccc12)C(=O)NCC(=O)O (stereo partly shown) [compound 131] (HELM PEPTIDE1{M.W.[CC(Cc1ccccc1)(N[*:1])C(=O)[*:2]].L.I.C.F.W.G}$$$$V2.0) | 93.1 |
| 7.5 to 15 | 0.7 | < 400 | CC[C@H](C)[C@H](NC(=O)[C@H](CC(C)C)NC(=O)[C@@H](NC(=O)C(C)(Cc1c[nH]c2ccccc12)NC(=O)[C@@H](N)CCSC)[C@@H](C)CC)C(=O)N[C@@H](CS)C(=O)N[C@@H](Cc1ccccc1)C(=O)N[C@@H](Cc1c[nH]c2ccccc12)C(=O)NCC(=O)O (stereo partly shown) [compound 132] (HELM PEPTIDE1{M.[CC(Cc1c[nH]c2ccccc12)(N[*:1])C(=O)[*:2]].I.L.I.C.F.W.G}$$$$V2.0) | 102 |
| 7.5 to 15 | 0.7 |  | CC[C@H](C)[C@H](NC(=O)[C@H](CC(C)C)NC(=O)[C@H](Cc1ccccc1)NC(=O)[C@H](Cc1c[nH]c2ccccc12)NC(=O)[C@@H](N)CCSC)C(=O)N[C@@H](CS)C(=O)N[C@@H](Cc1cncn1C)C(=O)N[C@@H](Cc1c[nH]c2ccccc12)C(=O)NCC(=O)O [compound 135] (HELM PEPTIDE1{M.W.F.L.I.C.[Cn1cncc1C[C@H](N[*:1])C(=O)[*:2]].W.G}$$$$V2.0) | 107 |
